Earlier results as cited in US20140274796A1, “Methods, Systems, and Compositions for In Vitro Concentric Cell Culture Analog Systems” (University of Central Florida Research Foundation, Inc., priority 2013, published 2014).

Legend:
[1] = tested on: sodium-channels of squid axon-membranes; conditions: literature statement [Lund 1982]
[2] = literature statement [Scollon 2009]
[3] = in vivo

Row | SMILES | activity of stereospecific isomer [1] | metabolic rate relative to trans isoform [2] | toxicity relative to trans isomers [3]
1 | CC1(C)C(C=C(Cl)Cl)C1C(=O)OCc1cccc(Oc2ccccc2)c1 (stereo not drawn) [1R-cis-, permethrin] | active | – | –
2 | CC1(C)C(C=C(Cl)Cl)C1C(=O)OCc1cccc(Oc2ccccc2)c1 (stereo not drawn) [1S-cis-, permethrin] | not | – | –
3 | CC1(C)C(C=C(Cl)Cl)C1C(=O)OCc1cccc(Oc2ccccc2)c1 (stereo not drawn) [1S-trans-, permethrin] | not | – | –
4 | CC1(C)C(C=C(Cl)Cl)C1C(=O)OCc1cccc(Oc2ccccc2)c1 (stereo not drawn) [1R-trans-, permethrin] | active | – | –
5 | CC1(C)C(C=C(Cl)Cl)C1C(=O)OCc1cccc(Oc2ccccc2)c1 (single isomer, unassigned) [cis isomers, permethrin] | – | much slower | about ten times more toxic than the trans isomers
